Measurements from PubChem BioAssay AID1996.
≈ marks a conversion by molar mass, not a printed value.

Conditions: buffer; pH 7.4; 200.0 µM

SMILES | solubility kinetic [µg/mL]
CCN(c1ccccc1)S(=O)(=O)c1c(C)noc1C | 31.4 (≈ 112 µM)
O=c1c2ccccc2ncn1-c1ccccc1[N+](=O)[O-] | 35.9 (≈ 134 µM)
Cc1c([N+](=O)[O-])c2ccc(O)cc2n1-c1ccccc1 | 1 (≈ 3.73 µM)
CCOC(=O)C1CCCN(C(=O)c2cc3cc(OC)c(OC)cc3[nH]2)C1 (stereo not given) | 17.5 (≈ 48.6 µM)
O=C(NC(=S)Nc1ccccc1O)c1cncc(Br)c1 | 9.4 (≈ 26.7 µM)
CC(C)c1ccc(/C=C/c2[nH]c(=O)[nH]c(=O)c2[N+](=O)[O-])cc1 | 19.3 (≈ 64.1 µM)
CN(C(=O)c1ccc(Br)o1)C1CCS(=O)(=O)C1 (stereo not given) | > 48.3
O=C1NC(=O)C(c2ccc(F)cc2)N1 (stereo not given) | > 29.1
CC(C)(C)c1ccc(S(=O)(=O)N2CCN(C3CCCC3)CC2)cc1 | < 0.4
Cc1cc(C)cc(N2CC(C(=O)NC3CCCCC3)CC2=O)c1 (stereo not given) | 11.4 (≈ 36.3 µM)
O=C(CSCc1ccc(Cl)cc1Cl)Nc1ccc(O)cc1C(=O)O | > 57.9
COc1cccc(CN2C(=O)NC3(CCCCCC3)C2=O)c1 | > 45.4
O=C(Nc1cc(Cl)cc(Cl)c1)c1coc(=O)c(Br)c1 | 5.1 (≈ 14 µM)
O=C(O)c1cc(S(=O)(=O)N2CCN(S(=O)(=O)c3ccc4ccccc4c3)CC2)ccc1Br | 77 (≈ 143 µM)
CC(=O)c1ccc(N2CCN(C(=O)c3cc(S(=O)(=O)N4CCOCC4)ccc3C)CC2)cc1 | > 70.7
COc1ccc2c(c1)c(C(=O)CN1CCCCC1)c(C)n2C | 44.3 (≈ 147 µM)
O=C(N1CCCCC1)N1CCN(S(=O)(=O)c2ccccc2)CC1 | > 50.6
O=C(O)CCN1CCN(S(=O)(=O)c2ccc3ccccc3c2)CC1 | 44.5 (≈ 128 µM)
CCN(CC)c1cc(Cl)nc(N)n1 | 25.9 (≈ 129 µM)
Cc1nnc(SCC(=O)Nc2ccc(OC(F)F)c(Cl)c2)n(N)c1=O | > 58.8
CCCS(=O)(=O)Nc1ccc(-c2cn3c(n2)SCC3)cc1 | 44.5 (≈ 138 µM)
Cc1[nH]c2ccccc2c1-c1nc(N)sc1C | > 36.5

SMILES | solubility kinetic [µg/mL]
CCOC(=O)c1c(C)[nH]c(C)c1C(=O)COC(=O)/C=C/c1ccco1 | > 51.8
Cc1nn(-c2ccccc2)c2nc(N)c(C(N)=O)cc12 | > 40.1
Cc1onc(-c2ccccc2Cl)c1C(=O)N1CCCCCC1 | > 47.8
CCn1c(=O)c2c(nc3n2CCCN3Cc2ccccc2)n(C)c1=O | 13.7 (≈ 40.4 µM)
COc1ccc(CSC2=NCCN2)cc1Br | 30.9 (≈ 103 µM)
CNC(=O)COC(=O)CCC(=O)c1cccs1 | 31.6 (≈ 124 µM)
Fc1ccccc1OCCCCN1CCCCC1 | 27.7 (≈ 110 µM)
Cc1ccccc1N1CCN(Cc2ccc(Br)o2)CC1 | 4.3 (≈ 12.8 µM)
O=C(/C=C/c1ccc(Cl)c([N+](=O)[O-])c1)c1cccnc1 | 2.2 (≈ 7.62 µM)
C=CCN(Cc1nc(-c2ccccc2)no1)C(=O)c1ccc2c(c1)OCO2 | 21.1 (≈ 58.1 µM)
O=C(OCC(=O)N1CCCC1=O)c1cc2ccccc2o1 | > 43.1
CSc1ncccc1C(=O)Nc1nc(C(C)(C)C)cs1 | 37.6 (≈ 122 µM)
O=C1CCCN1CCCNC(=S)Nc1ccccc1 | 41 (≈ 148 µM)
COc1cccc(C2NC(=O)CCC2[N+](=O)[O-])c1OC (stereo not given) | 39.4 (≈ 141 µM)
Cc1cc(O)c(C(=O)Cc2csc(C)n2)c(O)c1 | 4.1 (≈ 15.6 µM)
CC1CCc2c(sc(NC(=O)C3=COCCO3)c2C(N)=O)C1 (stereo not given) | 6.3 (≈ 19.5 µM)
Cc1nc(N)sc1-c1csc(Nc2cccc(C(=O)O)c2)n1 | > 49.9
O=C(COC(=O)c1ccccc1F)NC1CCCC1 | > 39.8
O=C(O)CSC(=S)N1CC2CC(C1)c1cccc(=O)n1C2 (stereo not given) | > 48.7
COc1ccc(C2C(C#N)=C(C)NC(C)=C2C#N)c(OC)c1 | 4.6 (≈ 15.6 µM)
O=S(=O)(c1ccccc1F)N1CCc2ccccc2C1 | < 0.6
N#Cc1ccc(C(=O)NC(=S)N2CCN(C=O)CC2)cc1 | 39 (≈ 129 µM)

Continued, values first:

solubility kinetic [µg/mL] | SMILES
0.6 (≈ 1.75 µM) | CC(C)c1ccc(Nc2nc(Cl)nc(NCc3ccco3)n2)cc1
44 (≈ 147 µM) | Cc1ccc(NC(=S)Nc2ccc3[nH]c(=O)[nH]c3c2)cc1
49.1 (≈ 148 µM) | Cc1ccccc1CSCC(=O)NCCSc1ccccn1
2.7 (≈ 9.49 µM) | COc1ccc(CSc2nc(C)cc(C)c2C#N)cc1
> 31.8 | COCCNC(=O)Nc1ccc(F)cc1
> 49.1 | Nc1cccc(S(=O)(=O)Nc2ccc(Br)cc2)c1
> 54.5 | Cc1ccc(C(=O)NCCNS(=O)(=O)c2ccccc2[N+](=O)[O-])cc1
2 (≈ 6.29 µM) | O=C(COc1ccccc1Cl)Nc1ccc2[nH]c(=O)[nH]c2c1
< 0.3 | CC(NC(=O)Nc1ccccc1Cl)c1ccc2c(c1)OCO2 (stereo not given)
> 43 | CC(C)(C)NC(=O)c1cccnc1Sc1ccccc1
30.7 | Cc1ccc(OCC(O)CN2CCc3ccccc3C2)c(C)c1.Cl (stereo not given)
> 49.9 | CC(CNC(=O)c1ccc(C#N)cc1)NC(=O)c1ccc(C#N)cc1 (stereo not given)
> 35.4 | NC(=O)N1c2ccccc2C=Cc2ccccc21
41.7 (≈ 130 µM) | CN(C)S(=O)(=O)c1cccc(COC(=O)c2cnccn2)c1
42.1 (≈ 131 µM) | Cc1ccc(C)c(C(C)NC(=O)c2ccc(Br)o2)c1 (stereo not given)
41.5 (≈ 128 µM) | CC(NC(=O)CCCc1c[nH]c2ccccc12)c1ccc(F)cc1 (stereo not given)
> 38.9 | Cc1ccc(OCCNC(=O)c2ccc(C)o2)cc1
36.3 (≈ 110 µM) | N[C@H](CSCc1ccccc1)C(=O)Nc1ccc([N+](=O)[O-])cc1
17 (≈ 53.5 µM) | O=C(CN1C(=O)COc2ccc(Cl)cc21)Nc1ccccn1
> 40.2 | N#Cc1cc([N+](=O)[O-])ccc1NCCc1ccccn1
11.1 (≈ 30.5 µM) | NC(=O)COc1c(-c2ccc(Br)o2)oc2ccccc2c1=O

solubility kinetic [µg/mL] | SMILES
14.8 (≈ 47.4 µM) | COc1ccc2c(CC(=O)Nc3ccc(OC)nc3)coc2c1
10.7 (≈ 37.8 µM) | COc1ccc(CNc2nc3ccccc3n2C)c(O)c1
3.1 (≈ 10.2 µM) | Cc1ccc(C2N=C(N)Nc3nc(=O)c4ccccc4n32)cc1 (stereo not given)
34.8 (≈ 79.7 µM) | COc1ccc(NC(=O)CCOc2ccccc2F)cc1S(=O)(=O)N1CCCCC1
> 41.3 | Cc1onc(C(=O)NCCc2ccccc2)c1[N+](=O)[O-]
21.8 (≈ 61.5 µM) | COc1ccc(NC(=O)CCN2C(=O)c3ccccc3C2=O)c(OC)c1
> 44.3 | CC(=O)N/C(=C\c1ccccc1)C(=O)OCc1ccccc1
2.4 (≈ 8.1 µM) | Cc1cc(NC(=O)CCc2ccc(-c3ccccc3)o2)no1
46.5 (≈ 150 µM) | CN(C)C(CNC(=O)c1ccc2nccnc2c1)c1ccco1 (stereo not given)
> 39.9 | Cc1cc(NC(=O)CSc2ccnc(=O)[nH]2)no1
61.7 (≈ 145 µM) | CN(Cc1ccccc1)S(=O)(=O)c1ccc(NC(=O)c2ccccc2C(=O)O)cc1
2 (≈ 7.77 µM) | Cc1ccsc1C(=O)Nc1nc2ccccc2[nH]1
67.3 (≈ 142 µM) | Cc1cc(NS(=O)(=O)c2ccc(NC(=O)CNS(=O)(=O)c3ccccc3)cc2)nc(C)n1
6.4 (≈ 20.5 µM) | CCN(CC)c1ccc(NC(=O)c2ccc3c(c2)OCO3)cc1
15.1 (≈ 52.6 µM) | CC(C)Oc1ccc(C(=O)OCC(=O)c2ccc[nH]2)cc1
38.8 (≈ 136 µM) | Cc1ccc(C(=O)NCCNC(=O)c2ccco2)cc1C
0.6 (≈ 2.03 µM) | CCCCn1c(Nc2ccc(OC)cc2)nc2ccccc21
35.4 (≈ 101 µM) | COC(=O)C1Cc2ccccc2CN1S(=O)(=O)c1ccc(F)cc1 (stereo not given)
42.9 (≈ 144 µM) | COc1ccc(/C=C(\C)C(=O)c2c(C)cc(C)[nH]c2=O)cc1
5.6 (≈ 17.9 µM) | O=C(COC(=O)C1=Cc2ccccc2OC1)NCc1ccco1
